We go through 20 compounds from ChEMBL document CHEMBL1681724, “Discovery of potent and orally bioavailable heterocycle-based cannabinoid CB1 receptor agonists” (Bioorg Med Chem Lett, 2011).

Each structure is given as a SMILES string. ≈ marks a conversion by molar mass, not a printed value. Some results are limits rather than exact numbers.

Data set [1] has as its target T1, Cannabinoid receptor 1 (Homo sapiens, UniProt P21554). Description: Agonist activity at human cannabinoid CB1 receptor expressed in CHO cells by luciferase reporter gene assay. The class given is functional, cell-based. Background: A reporter such as luciferase makes a cellular process visible.
Data set [2] can be described thus: Aqueous solubility of the compound at pH 7.4. The data set is classed as physicochemical. The note with it: aqueous medium.
The target of data set [3] is T1, Cannabinoid receptor 1. Description: Displacement of [3H]CP55940 from human cannabinoid CB1 receptor expressed in insect Sf9 cells.
For the next data set, the target named is Cannabinoid receptor 2 (Homo sapiens, UniProt P34972). Description: Displacement of [3H]CP55940 from human cannabinoid CB2 receptor expressed in insect Sf9 cells.
Data set [4] is described as follows: Apparent permeability from apical to basolateral side of human Caco2 cells. The class given is ADME, cell-based. The conditions noted are these: Caco-2. Background: Caco-2 monolayers are a common model of the intestinal barrier.
Data set [5] is described as follows: Apparent permeability from basolateral to apical side of human Caco2 cells. The class given is ADME, cell-based. The conditions noted are these: Caco-2.
A short description of data set [6]: AUC in rat plasma at 0.4 mg/kg, iv. The class given is ADME, organism-based. On the set-up: dose 0.4 mg/kg, route intravenous.
The nature of data set [7]: Clearance in rat at 0.4 mg/kg, iv. The class given is ADME, organism-based. Set-up: dose 0.4 mg/kg, route intravenous. The note with it: in vivo.
The nature of data set [8]: Half life in rat at 0.4 mg/kg, iv. The data set is classed as ADME, organism-based. On the set-up: dose 0.4 mg/kg, route intravenous. The conditions noted are these: in vivo.
The nature of data set [9]: Volume of distribution at steady state in rat at 0.4 mg/kg, iv. The class given is ADME, organism-based. The note with it: in vivo, read-out: Vdss. Set-up: dose 0.4 mg/kg, route intravenous.
Data set [10] in a line: AUC in rat plasma at 5 mg/kg, po. The data set is classed as ADME, organism-based. Set-up: dose 5 mg/kg, route oral.
The nature of data set [11]: Cmax in rat at 5 mg/kg, po. The class given is ADME, organism-based. The note with it: in vivo. On the set-up: dose 5 mg/kg, route oral.
A short description of data set [12]: Tmax in rat at 5 mg/kg, po. The data set is classed as ADME, organism-based. Set-up: dose 5 mg/kg, route oral. The note with it: in vivo.
Data set [13] in a line: Oral bioavailability in rat at 5 mg/kg. The note with it: in vivo. The data set is classed as ADME, organism-based.
Data set [14] can be described thus: Genotoxicity in Salmonella Typhimurium at 10^-4 M by Ames test. The data set is classed as toxicity. The note with it: salmonella enterica subsp. enterica serovar typhimurium, 100 µM. A general note: In the Ames test, an excess of revertant colonies over the control signals mutagenicity.

T1 sequence (P21554 whole entry): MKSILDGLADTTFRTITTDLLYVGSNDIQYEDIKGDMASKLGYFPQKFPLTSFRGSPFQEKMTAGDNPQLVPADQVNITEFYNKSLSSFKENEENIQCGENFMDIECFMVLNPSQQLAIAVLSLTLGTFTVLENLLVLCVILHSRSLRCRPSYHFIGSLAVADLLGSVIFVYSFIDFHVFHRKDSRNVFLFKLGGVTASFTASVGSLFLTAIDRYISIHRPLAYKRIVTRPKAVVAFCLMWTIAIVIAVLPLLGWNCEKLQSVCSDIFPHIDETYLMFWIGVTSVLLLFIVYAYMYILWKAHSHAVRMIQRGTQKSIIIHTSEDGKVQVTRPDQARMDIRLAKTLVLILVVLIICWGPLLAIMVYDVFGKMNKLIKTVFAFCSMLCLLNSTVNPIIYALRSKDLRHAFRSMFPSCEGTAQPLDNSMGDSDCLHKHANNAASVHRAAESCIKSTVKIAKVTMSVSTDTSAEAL
Cannabinoid receptor 2, sequence (P34972 whole entry): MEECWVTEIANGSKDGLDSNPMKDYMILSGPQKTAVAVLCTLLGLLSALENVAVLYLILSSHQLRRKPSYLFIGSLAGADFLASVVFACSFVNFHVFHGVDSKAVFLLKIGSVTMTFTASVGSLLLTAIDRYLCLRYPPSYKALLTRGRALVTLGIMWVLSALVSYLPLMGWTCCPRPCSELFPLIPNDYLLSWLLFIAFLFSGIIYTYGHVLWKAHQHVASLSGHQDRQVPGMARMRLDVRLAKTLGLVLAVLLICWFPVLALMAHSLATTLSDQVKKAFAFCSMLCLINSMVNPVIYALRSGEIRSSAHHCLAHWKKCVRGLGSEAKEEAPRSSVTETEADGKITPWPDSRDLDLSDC

One may read the EC50 as the concentration giving half of the maximal effect. High values mean a need for much substance, low ones an effect from little substance. The solubility is the dissolved amount per volume that the medium holds. A higher solubility goes with much dissolved substance. For the compound `COCCN(C)Cc1nc(-c2cn(CC3CCOCC3)c3c(Cl)cccc23)ns1`, the EC50 on Cannabinoid receptor 1 [1] is 79.4 nM. Further, the solubility in data set [2] is below 1 µg/mL.
Turning to `Clc1cccc2c(-c3nsc(CN4CCCC4)n3)cn(CC3CCCCC3)c12`, a half-maximal effect on Cannabinoid receptor 1 [1] (EC50) was put at 15.8 nM. Besides, the solubility in data set [2] is below 1 µg/mL.
Turning to `Clc1cccc2c(-c3nsc(CN4CCCC4)n3)cn(CC3CCOCC3)c12`, the solubility in data set [2] was below 1 µg/mL.
Regarding `CC(=O)N[C@@H]1CCN(Cc2nc(-c3cn(CC4CCOCC4)c4c(Cl)cccc34)ns2)C1`, the midpoint of the response at Cannabinoid receptor 1 [1], the EC50, lay at 794 nM. Besides, the solubility in [2] was determined as 16 µg/mL (≈ 33.8 µM).
With `OC[C@H]1CCCN1Cc1nc(-c2cn(CC3CCOCC3)c3c(Cl)cccc23)ns1`, on Cannabinoid receptor 1 [1], the EC50 was 15.8 nM. Also, in data set [2], the solubility is below 1 µg/mL.
At Cannabinoid receptor 1 [1], `O=C(O)C1CCCN1Cc1nc(-c2cn(CC3CCOCC3)c3c(Cl)cccc23)ns1` (stereo not drawn) had an EC50 of 158 nM. The compound further registered a solubility in [2] of 108 µg/mL (≈ 234 µM).
The matching figures for `NC(=O)CNC(=O)[C@@H]1CCCN1Cc1nc(-c2cn(CC3CCOCC3)c3c(Cl)cccc23)ns1`: 398 nM and 15 µg/mL (≈ 29 µM).
Turning to `CN(CCO)Cc1nc(-c2cn(CC3CCOCC3)c3c(Cl)cccc23)ns1`, the EC50 at Cannabinoid receptor 1 [1] is 79.4 nM. Also, in data set [2], the solubility is below 1 µg/mL.
In the case of `COCCN(Cc1nc(-c2cn(CC3CCOCC3)c3c(Cl)cccc23)ns1)S(C)(=O)=O`, in [2], the solubility is below 1 µg/mL.
Regarding `CS(=O)(=O)N(CCO)Cc1nc(-c2cn(CC3CCOCC3)c3c(Cl)cccc23)ns1`, in [2], the solubility is below 1 µg/mL.
In turn, `COCCN(C)Cc1nc(-c2cn(CC3CCS(=O)(=O)CC3)c3c(Cl)cccc23)ns1` showed an EC50 at Cannabinoid receptor 1 [1] of 200 nM. The compound further displayed a solubility in data set [2] below 1 µg/mL.
In the case of `Clc1cccc2c(-c3noc(CN4CCCC4)n3)cn(CC3CCOCC3)c12`, the EC50 on Cannabinoid receptor 1 [1] was 100 nM. Moreover, the solubility in [2] was below 1 µg/mL.
One may read the Ki as a dissociation constant, usually derived from enzyme kinetics or from competition with a known ligand. High values mean weaker binding, low ones tighter binding. The Papp A→B is the apparent permeability from the apical to the basolateral side of a cell layer. For orientation: Papp B→A means the apparent permeability from the basolateral to the apical side of a cell layer. The term AUC denotes concentration integrated over time. The low end stands for less exposure, the high end for more exposure. For orientation: clearance means a measure of how efficiently the substance is removed, as volume per time. Low values mean a low capacity for elimination, high ones a high capacity for elimination. The half-life is how long it takes for the measured level to halve. Lower therefore signals fast loss. The term Cmax denotes the peak of the concentration-time curve. The term Tmax denotes the time from dosing to the highest level. The bioavailability is the share of a dose that reaches the circulation, judged against a reference dose that is usually intravenous. High values mean good availability, low ones poor availability. Regarding `CN(CC(N)=O)Cc1nc(-c2cn(CC3CCOCC3)c3c(Cl)cccc23)no1`, the concentration in solution in data set [2] (solubility) was 21 µg/mL (≈ 50.3 µM). The inhibition constant Ki at Cannabinoid receptor 1 [3] was 3.98 nM; at Cannabinoid receptor 2, 6.31 nM. In addition, in data set [4], the Papp A→B was 8.3 ×10⁻⁶ cm/s. Besides, the Papp B→A in [5] was 12.7 ×10⁻⁶ cm/s. In addition, the AUC in data set [6] is 244 ng·h/mL; in data set [10], 1570 ng·h/mL. The compound also showed a clearance in data set [7] of 28 mL/min/kg. The half-life in data set [8] is 1.4 h. The Vd in data set [9] was determined as 3 L/kg. The highest level in [11] (Cmax) was 173 ng/mL. For the same compound, in data set [12], the Tmax worked out at 1 h. Besides, the bioavailability in data set [13] turned out to be 53%. In data set [14], the Activity entry is “Non-toxic”.
In the case of `CN(CC(=O)NCCO)Cc1nc(-c2cn(CC3CCOCC3)c3c(Cl)cccc23)no1`, the solubility in data set [2] amounted to 88 µg/mL (≈ 190 µM).
At Cannabinoid receptor 1 [1], `CN(Cc1nc(-c2cn(CC3CCOCC3)c3c(Cl)cccc23)no1)[C@@H](CO)C(N)=O` showed an EC50 of 251 nM. Besides, the concentration in solution in data set [2] (solubility) came to 95 µg/mL (≈ 212 µM).
For `O=C(NCCO)C1CCN(Cc2nc(-c3cn(CC4CCOCC4)c4c(Cl)cccc34)no2)CC1`, a half-maximal effect on Cannabinoid receptor 1 [1] (EC50) was put at 126 nM. For the same compound, in [2], the concentration in solution (solubility) came to 115 µg/mL (≈ 229 µM).
Consider `COCC(=O)NCc1nc(-c2cn(CC3CCOCC3)c3c(Cl)cccc23)no1`, for which the solubility in data set [2] was 4 µg/mL (≈ 9.55 µM).
In the case of `CCNC(=O)NCc1nc(-c2cn(CC3CCOCC3)c3c(Cl)cccc23)no1`, a half-maximal effect at Cannabinoid receptor 1 [1] (EC50) was put at 2000 nM. In [2], this compound returned a solubility below 1 µg/mL.
The compound `CN(C)S(=O)(=O)N(C)Cc1nc(-c2cn(CC3CCOCC3)c3c(Cl)cccc23)no1` gave an EC50 on Cannabinoid receptor 1 [1] of 31.6 nM. Moreover, in data set [2], the solubility was below 1 µg/mL.
`CC(C)N(CCO)Cc1csc(-c2c(CC3CCOCC3)[nH]c3c(Cl)cccc23)n1` showed a concentration for a half-maximal effect (EC50) on Cannabinoid receptor 1 [1] of at most 100 nM. The solubility in data set [2] is above 10 µg/mL. Also, the bioavailability in [13] came to 4%.
